Source: patent publication US20030114375A1, “Method for treating cystic fibrosis” (The Government of the USA, Dept of Health and Human …, priority 1994, published 2003)
Where “and” joins values, the source holds several entries; their conditions need not be identical. Identical values can stand only once. Like-named read-outs stand apart in the source and are kept apart here.

Experiments:
CFPAC cells [1] = test: [36Cl]- efflux from CFPAC cells
CFPAC cells [2] = conditions: read from the graphs
A2a-adenosine receptor = molecular target: T1, A2a-adenosine receptor (Rattus norvegicus, UniProt P30543); test: Inhibition of [3H]CGS 21680 binding to A2a receptors; conditions: rat striatal membranes, 5 nM [3H]CGS 21680; read-out: Ki, μM(A2)
T1 construct: Rat cerebral cortical membranes and striatal membranes were prepared; from tissue; host or cells: rat striatal membranes
T1 sequence (P30543 whole entry): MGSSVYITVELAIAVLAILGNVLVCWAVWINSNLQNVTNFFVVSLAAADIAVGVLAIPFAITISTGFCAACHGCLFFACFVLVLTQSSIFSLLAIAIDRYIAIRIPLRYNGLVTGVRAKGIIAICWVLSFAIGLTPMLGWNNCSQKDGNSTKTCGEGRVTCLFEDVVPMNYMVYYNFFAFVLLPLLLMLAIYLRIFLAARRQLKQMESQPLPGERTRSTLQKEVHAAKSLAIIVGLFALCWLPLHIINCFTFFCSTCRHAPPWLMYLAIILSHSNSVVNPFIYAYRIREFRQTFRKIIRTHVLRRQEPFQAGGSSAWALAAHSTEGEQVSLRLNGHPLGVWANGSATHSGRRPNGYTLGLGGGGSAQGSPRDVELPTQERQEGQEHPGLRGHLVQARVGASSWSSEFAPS
Protocol: (§1) Solid samples of the adenosine derivatives were dissolved in dimethyl sulfoxide (DMSO) and stored in the art at. −20° C. The stock solutions were diluted with DMSO to a concentration of ≦0.1 mM prior to addition to the aqueous medium. The final concentration of DMSO in the assay medium was generally 2%.
Membranes (^˜80 μg protein per tube) were incubated for one hour at 25° C. in a total volume of 0.5 ml of a buffer solution consisting of […] tris hydrochloride and 10 mM MgCl2 at pH 7.4. Test drugs were dissolved in DMSO and added in 10 μl aliquots, resulting in a final DMSO concentration of 2%. Non-specific binding was defined using 20 μM 2-chloroadenosine. Filtration was carried out using a Brandel Cell Harvester, as above, using the tris.HCl/MgCl2 buffer recited hereinabove as the washing buffer.
(§2) At least six different concentrations spanning three orders of magnitude, adjusted appropriately for the IC50 of each compound, were used.

Iα polypeptide = molecular target: T2, Iα polypeptide (Homo sapiens, UniProt P13569); test: Phosphatidylserine liposome aggregation driven by Iα polypeptide; type: biochemical; conditions: 0.5 μg/ml (0.18 μM) Iα; for Effect on PS liposome aggregation driven by Iα: 2-thio-CPX up to 1 μM, IBMX up to 15 μM
T2 construct: made in house; host or cells: chemical solid-phase synthesis (Yale University)
T2 sequence (P13569 with tags, fused parts or gaps): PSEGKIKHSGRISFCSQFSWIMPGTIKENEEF
Protocol: Liposome aggregation assay: Phosphatidylserine (“PS”, obtained from Avanti) was dissolved in chloroform, and small unilamellar liposomes were prepared by the extrusion process known in the art. A Lipex machine was used to extrude the PS in a buffer consisting of 10 mM Na-HEPES, pH 7.2 and 1 mM EDTA. The liposomes were diluted to a final optical density at 540 nm of 0.01 and incubated with different concentrations of the different polypeptides and/or chloride ion efflux-activating compounds.

[3] = molecular target: T3, CFTR polypeptide Iα [SEQ ID NO:1] (Homo sapiens, UniProt P13569); test: 3H-CPX binding to Iα polypeptide (dot blot filter binding, displacement)
T3 construct: made in house; host or cells: chemical solid-phase synthesis (Yale University)
T3 sequence (P13569 with tags, fused parts or gaps): as above
Protocol: CPX was used as a representative compound known to activate chloride ion efflux from ΔF508 mutant cells. Stock solutions of CPX were prepared in DMSO in the millimolar concentration range. […] For displacement studies, unlabeled CPX, or other xanthine antagonists and nucleotides, were added to the incubation mixture before the radioactive probe. The mixture was then filtered through a nitrocellulose (NC) membrane (Schleicher & Schuell) by using a standard dot blot apparatus. […] The dot blots were then washed five times with 200 μl TRIS buffer-NaCl solutions (50 mM TRIS pH=7.0, 150 mM NaCl), radioactive spots were cut out, and the total was radioactivity determined by liquid scintillation counting.

CFPAC cells [4] = conditions: U.S. Pat. No. 5,366,977 / Eidelman et al.; cited from earlier work
A1-adenosine receptor = molecular target: T4, A1-adenosine receptor (Rattus norvegicus, UniProt P25099); test: Inhibition of [3H]N6-phenylisopropyladenosine binding to A1 receptors; conditions: for Ki: rat cerebral cortex membranes, 1 nM [3H]PIA, read-out: Ki, μM(A1)
T4 construct: Rat cerebral cortical membranes and striatal membranes were prepared; from tissue; host or cells: rat cerebral cortex membranes
T4 sequence (P25099 1-326): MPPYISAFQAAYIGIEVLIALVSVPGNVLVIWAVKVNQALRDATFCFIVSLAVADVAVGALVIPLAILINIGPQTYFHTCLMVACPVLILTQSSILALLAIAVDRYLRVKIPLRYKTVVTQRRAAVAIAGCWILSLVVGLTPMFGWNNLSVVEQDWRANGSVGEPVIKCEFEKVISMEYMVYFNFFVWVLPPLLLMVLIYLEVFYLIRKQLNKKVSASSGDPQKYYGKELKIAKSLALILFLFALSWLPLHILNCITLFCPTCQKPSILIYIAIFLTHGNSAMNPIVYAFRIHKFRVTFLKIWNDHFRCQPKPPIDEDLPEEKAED
Protocol: as §1
Inhibition of binding of 1 nM [^3H]N^6-phenylisopropyladenosine (Dupont NEN, Boston, Mass.) to A1 receptors in rat cerebral cortex membranes was measured as described in Schwabe et al., Naunyn-Schmiedeberg's Arch. […] Membranes (^˜100 μg protein per tube) were incubated for 1.5 hours at 37° C. in a total volume of 0.5 ml of 50 mM tris hydrochloride at pH 7.4. Test drugs were dissolved in DMSO and added in 10 μl aliquots, resulting in a final DMSO concentration of 2%. Bound and free radioligand were separated by addition of 3 ml of a buffer containing 50 mM tris hydrochloride, at pH 7.4 at 5° C., followed by vacuum filtration using a Brandel Cell Harvester (Brandel, Gaithersburg, Md.) and a Whatman GF/B glass fiber filter with additional washes totaling 9 ml of buffer. Non-specific binding was determined with 10 μM 2-chloroadenosine.
as §2

Row | Displacement of 3H-CPX binding to Iα [3] | Concentration at maximum rate and extent of Iα-driven liposome aggregation (Iα polypeptide) | Kd ([3]; Scatchard plot, n=4, 100 nM Iα) | Affinity for A1 receptor (A1-adenosine receptor) | Compound | Conc. max. (nM): concentration at maximum impact upon chloride efflux (CFPAC cells [1]) | thresh (nM): minimum concentration required to detect an effect upon chloride efflux (CFPAC cells [1]) | Efflux rate as compared to control (FIGS. 9-12) (CFPAC cells [2]) | Ki (A2a-adenosine receptor) | Effect on PS liposome aggregation driven by Iα (Iα polypeptide) | Activation of chloride efflux from CF cells (words, prior disclosure) (CFPAC cells [4]) | Ki (A1-adenosine receptor) | Efflux rate as compared to control (FIGS. 9-12) (CFPAC cells [1]; read from the graphs) | % control: chloride efflux at minimum detection relative to control (CFPAC cells [1]; at threshold concentration)
1 |  |  |  |  | Cn1c(=O)c2[nH]cnc2n(C)c1=O [Compound 1, theophylline, reference compound] | 100 nM | 1 nM | 200% |  |  |  |  |  | 
2 | not effected |  |  |  | CCCn1c(=O)c2[nH]c(C3CCCC3)nc2n(CCC)c1=S [Compound 8, 2-thio-8-cylcopentyl-1,3-dipropylxanthine, reference compound] | >>10^4 nM |  |  | 0.31 µM | entirely inactive | ineffective | 0.00066 µM |  | 
3 | Displacement of binding was effected | 100 nM | 69 ± 27 nM | high affinity | CCCn1c(=O)c2[nH]c(C3CCCC3)nc2n(CCC)c1=O [Compound 5, 1,3-dipropyl-8-cyclopentylxanthine, reference compound] | 30 nM | 1 nM |  |  |  | promotes chloride efflux |  | 200% | 
4 |  |  |  |  | CCCn1c(=O)c2[nH]c(C34CC5CC(CC3C5)C4)nc2n(CCC)c1=O [Compound 12, 1,3-dipropyl-8-noradamantylxanthine, reference compound] | 10 nM | 1 nM |  | 0.38 µM |  | ineffective | 0.0013 µM |  | 120% and 120 ± 5%

Row | Compound | Displacement of 3H-CPX binding to Iα [3] | Concentration at maximum rate and extent of Iα-driven liposome aggregation (Iα polypeptide) | Kd ([3]; Scatchard plot, n=4, 100 nM Iα) | Affinity for A1 receptor (A1-adenosine receptor) | Conc. max. (nM): concentration at maximum impact upon chloride efflux (CFPAC cells [1]) | thresh (nM): minimum concentration required to detect an effect upon chloride efflux (CFPAC cells [1]) | Efflux rate as compared to control (FIGS. 9-12) (CFPAC cells [2]) | Ki (A2a-adenosine receptor) | Effect on PS liposome aggregation driven by Iα (Iα polypeptide) | Activation of chloride efflux from CF cells (words, prior disclosure) (CFPAC cells [4]) | Ki (A1-adenosine receptor) | Efflux rate as compared to control (FIGS. 9-12) (CFPAC cells [1]; read from the graphs) | % control: chloride efflux at minimum detection relative to control (CFPAC cells [1]; at threshold concentration)
5 | 3-isobutylmethyl xanthine [Compound 3] | not effected |  |  |  |  |  |  | 16 µM | entirely inactive |  |  |  | 
